Legend:
Assay type in all cases: functional
OVCAR-5 = test: Growth inhibition of human OVCAR5 cells after 48 hrs by SRB protein assay; settings: OVCAR-5, 48 h
NCI-H460 = test: Anticancer activity against human NCI-H460 cells assessed as growth of cells at 100 uM relative to untreated cells
IGROV-1 = test: Growth inhibition of human IGROV1 cells after 48 hrs by SRB protein assay; settings: IGROV-1, 48 h
T47D = test: Growth inhibition of human T47D cells after 48 hrs by SRB protein assay
M14 = test: Growth inhibition of human M14 cells after 48 hrs by SRB protein assay; settings: M14, 48 h
PC-3 = test: Growth inhibition of human PC3 cells after 48 hrs by SRB protein assay; settings: PC-3, 48 h
ACHN = test: Growth inhibition of human ACHN cells after 48 hrs by SRB protein assay
LOX IMVI = test: Growth inhibition of human LOX IMVI cells after 48 hrs by SRB protein assay
CAKI-1 = test: Growth inhibition of human CAKI1 cells after 48 hrs by SRB protein assay; settings: CAKI-1, 48 h
EKVX = test: Growth inhibition of human EKVX cells after 48 hrs by SRB protein assay
CCRF-CEM = test: Growth inhibition of human CCRF-CEM cells after 48 hrs by SRB protein assay
MCF7 = test: Growth inhibition of human MCF7 cells after 48 hrs by SRB protein assay; settings: MCF7, 48 h
Hs-578T = test: Growth inhibition of human HS578T cells after 48 hrs by SRB protein assay
RXF 393 = test: Growth inhibition of human RXF393 cells after 48 hrs by SRB protein assay; settings: RXF 393, 48 h
SK-OV-3 = test: Growth inhibition of human SK-OV-3 cells after 48 hrs by SRB protein assay; settings: SK-OV-3, 48 h
A549 = test: Growth inhibition of human A549/ATCC cells after 48 hrs by SRB protein assay; settings: A549, 48 h
BT-549 = test: Growth inhibition of human BT549 cells after 48 hrs by SRB protein assay; settings: BT-549, 48 h
HOP-62 = test: Growth inhibition of human HOP62 cells after 48 hrs by SRB protein assay; settings: HOP-62, 48 h
[1] = Growth inhibition of human MDA-MB-231/ATCC cells after 48 hrs by SRB protein assay; settings: MDA-MB-231, 48 h
SK-MEL-5 = test: Growth inhibition of human SK-MEL-5 cells after 48 hrs by SRB protein assay; settings: SK-MEL-5, 48 h
KM12 = test: Growth inhibition of human KM12 cells after 48 hrs by SRB protein assay; settings: KM12, 48 h
OVCAR-8 = test: Growth inhibition of human OVCAR8 cells after 48 hrs by SRB protein assay; settings: OVCAR-8, 48 h
RPMI-8226 = test: Growth inhibition of human RPMI8226 cells after 48 hrs by SRB protein assay; settings: RPMI-8226, 48 h
NCI-H226 = test: Growth inhibition of human NCI-H226 cells after 48 hrs by SRB protein assay; settings: NCI-H226, 48 h
HCT-15 = test: Growth inhibition of human HCT15 cells after 48 hrs by SRB protein assay; settings: HCT-15, 48 h
SF-268 [2] = test: Growth inhibition of human SF268 cells after 48 hrs by SRB protein assay; settings: SF-268, 48 h
OVCAR-3 = test: Growth inhibition of human OVCAR-3 cells after 48 hrs by SRB protein assay; settings: OVCAR-3, 48 h
SF-268 [3] = test: Anticancer activity against human SF268 cells assessed as growth of cells at 100 uM relative to untreated cells
NCI-H522 = test: Growth inhibition of human NCI-H522 cells after 48 hrs by SRB protein assay; settings: NCI-H522, 48 h
SF-295 = test: Growth inhibition of human SF295 cells after 48 hrs by SRB protein assay; settings: SF-295, 48 h
UACC-62 = test: Growth inhibition of human UACC62 cells after 48 hrs by SRB protein assay; settings: UACC-62, 48 h
K562 = test: Growth inhibition of human K562 cells after 48 hrs by SRB protein assay; settings: K562, 48 h
SK-MEL-28 = test: Growth inhibition of human SK-MEL-28 cells after 48 hrs by SRB protein assay; settings: SK-MEL-28, 48 h
786-0 = test: Growth inhibition of human 786-0 cells after 48 hrs by SRB protein assay; settings: 786-0, 48 h
SW-620 = test: Growth inhibition of human SW620 cells after 48 hrs by SRB protein assay; settings: SW-620, 48 h
HCC 2998 = test: Growth inhibition of human HCC2998 cells after 48 hrs by SRB protein assay; settings: HCC 2998, 48 h
UO-31 = test: Growth inhibition of human UO31 cells after 48 hrs by SRB protein assay; settings: UO-31, 48 h
SK-MEL-2 = test: Growth inhibition of human SK-MEL-2 cells after 48 hrs by SRB protein assay; settings: SK-MEL-2, 48 h
SN12C = test: Growth inhibition of human SN12C cells after 48 hrs by SRB protein assay
NCI/ADR-RES = test: Growth inhibition of human NCI/ADR-RES cells after 48 hrs by SRB protein assay

GI50 (OVCAR-5): 16.2 µM
GI50 (T47D): 18.2 µM
GI50 (PC-3): 26.9 µM
GI50 (ACHN): 15.1 µM
GI50 (CCRF-CEM): 21.4 µM
GI50 (MCF7): 26.9 µM
GI50 (SK-OV-3): > 100 µM
GI50 (A549): 35.5 µM
GI50 (BT-549): > 100 µM
GI50 (SK-MEL-5): 18.6 µM
GI50 (OVCAR-8): 18.2 µM
GI50 (RPMI-8226): 23.4 µM
GI50 (NCI-H226): 20 µM
GI50 (HCT-15): 14.8 µM
GI50 (OVCAR-3): 20 µM
GI50 (NCI-H522): 20.4 µM
GI50 (K562): 26.3 µM
GI50 (SK-MEL-28): 23.4 µM
GI50 (786-0): 16.6 µM
GI50 (SW-620): 44.7 µM
GI50 (HCC 2998): > 100 µM
GI50 (SK-MEL-2): 66.1 µM
Structure (SMILES): O=C(CC1Sc2ncnn2C1=O)Nc1ccc(Br)cc1 (stereo not drawn)
TGI (OVCAR-5; read-out: Log TGI (converted)): 29.5 µM
Activity (NCI-H460): 0%
GI50 (IGROV-1): 34.7 µM
TGI (IGROV-1; read-out: Log TGI (converted)): > 100 µM
TGI (T47D; read-out: Log TGI (converted)): 45.7 µM
GI50 (M14): 15.8 µM
TGI (M14; read-out: Log TGI (converted)): 29.5 µM
TGI (PC-3; read-out: Log TGI (converted)): 95.5 µM
TGI (ACHN; read-out: Log TGI (converted)): 28.2 µM
GI50 (LOX IMVI): 16.2 µM
TGI (LOX IMVI; read-out: Log TGI (converted)): 31.6 µM
GI50 (CAKI-1): 20.4 µM
TGI (CAKI-1; read-out: Log TGI (converted)): 43.7 µM
GI50 (EKVX): 31.6 µM
TGI (EKVX; read-out: Log TGI (converted)): > 100 µM
TGI (CCRF-CEM; read-out: Log TGI (converted)): 55 µM
TGI (MCF7; read-out: Log TGI (converted)): 74.1 µM
GI50 (Hs-578T): 7.24 µM
TGI (Hs-578T; read-out: Log TGI (converted)): 20 µM
GI50 (RXF 393): 12.9 µM
TGI (RXF 393; read-out: Log TGI (converted)): 31.6 µM
TGI (SK-OV-3; read-out: Log TGI (converted)): > 100 µM
TGI (A549; read-out: Log TGI (converted)): > 100 µM
TGI (BT-549; read-out: Log TGI (converted)): > 100 µM
GI50 (HOP-62): > 100 µM
TGI (HOP-62; read-out: Log TGI (converted)): > 100 µM
GI50 [1]: 17 µM
TGI ([1]; read-out: Log TGI (converted)): 36.3 µM
TGI (SK-MEL-5; read-out: Log TGI (converted)): 38.9 µM
GI50 (KM12): > 100 µM
TGI (KM12; read-out: Log TGI (converted)): > 100 µM
TGI (OVCAR-8; read-out: Log TGI (converted)): 38 µM
TGI (RPMI-8226; read-out: Log TGI (converted)): 64.6 µM
TGI (NCI-H226; read-out: Log TGI (converted)): 45.7 µM
TGI (HCT-15; read-out: Log TGI (converted)): 28.2 µM
GI50 (SF-268 [2]): > 100 µM
TGI (SF-268 [2]; read-out: Log TGI (converted)): > 100 µM
TGI (OVCAR-3; read-out: Log TGI (converted)): 37.2 µM
Activity (SF-268 [3]): 100%
TGI (NCI-H522; read-out: Log TGI (converted)): 57.5 µM
GI50 (SF-295): > 100 µM
TGI (SF-295; read-out: Log TGI (converted)): > 100 µM
GI50 (UACC-62): > 100 µM
TGI (UACC-62; read-out: Log TGI (converted)): > 100 µM
TGI (K562; read-out: Log TGI (converted)): 79.4 µM
TGI (SK-MEL-28; read-out: Log TGI (converted)): 70.8 µM
TGI (786-0; read-out: Log TGI (converted)): 30.2 µM
TGI (SW-620; read-out: Log TGI (converted)): > 100 µM
TGI (HCC 2998; read-out: Log TGI (converted)): > 100 µM
GI50 (UO-31): 18.6 µM
TGI (UO-31; read-out: Log TGI (converted)): 38 µM
TGI (SK-MEL-2; read-out: Log TGI (converted)): > 100 µM
GI50 (SN12C): 22.9 µM
TGI (SN12C; read-out: Log TGI (converted)): 63.1 µM
GI50 (NCI/ADR-RES): 25.1 µM
TGI (NCI/ADR-RES; read-out: Log TGI (converted)): 70.8 µM

Reference: ChEMBL document CHEMBL1147193, “New 5-substituted thiazolo[3,2-b][1,2,4]triazol-6-ones: synthesis and anticancer evaluation” (2007)
